Assay results: ChEMBL document CHEMBL1201862, “PubChem BioAssay data set” (2004)
Structures can show the parent of a compound that is named as a salt.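 Protocol summary: plate cells (96-well), add compound at 5 concentrations, incubate 48 h, interpolate endpoints linearly. GI50 = concentration required for 50% inhibition of growth.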 The source made the active and inactive calls. No stated cut-off is given here; in the data, active = GI50 up to about 1.1 µM and inactive = higher.

Columns and labels:
Experiment in all cases: NCI-60 cell line screen, 48 h
A498 = system: A498
RXF 393 = system: RXF 393
HCT-116 = system: HCT-116
PC-3 = system: PC-3
MOLT-4 = system: MOLT-4
NCI-H522 = system: NCI-H522
SF-539 = system: SF-539
UACC-62 = system: UACC-62
MDA-N = system: MDA-N
XF498 = system: XF498
NCI-H226 = system: NCI-H226
TK-10 = system: TK-10
U-251 = system: U-251
CAKI-1 = system: CAKI-1
OVCAR-8 = system: OVCAR-8
SF-295 = system: SF-295
OVCAR-4 = system: OVCAR-4
OVCAR-5 = system: OVCAR-5
KM-20L2 = system: KM-20L2
DU-145 = system: DU-145
NCI-H23 = system: NCI-H23
MDA-MB-435 = system: MDA-MB-435
DMS-114 = system: DMS-114
DMS-273 = system: DMS-273
A549 = system: A549
T47D = system: T47D
EKVX = system: EKVX
UACC-257 = system: UACC-257
NCI-H460 = system: NCI-H460
SR = system: SR
SNB-78 = system: SNB-78
HOP-92 = system: HOP-92
SF-268 = system: SF-268
SW-620 = system: SW-620
RPMI-8226 = system: RPMI-8226
UO-31 = system: UO-31
BT-549 = system: BT-549
SK-MEL-28 = system: SK-MEL-28
M19-MEL = system: M19-MEL
SNB-19 = system: SNB-19

Measured: GI50

CCN(CC)CCNc1ccc(CO)c2sc3ccccc3c(=O)c12 [HYCANTHONE MESYLATE]
inactive: A498 6.1 µM | RXF 393 5.19 µM | HCT-116 3.34 µM | PC-3 5.81 µM | MOLT-4 1.63 µM | NCI-H522 3.78 µM | SF-539 11 µM | UACC-62 14.7 µM | MDA-N 5.12 µM | XF498 11.6 µM | NCI-H226 8.91 µM | TK-10 12.1 µM | U-251 8.89 µM | CAKI-1 9.02 µM | OVCAR-8 5.15 µM | SF-295 8.26 µM | OVCAR-4 4.45 µM | OVCAR-5 6.95 µM | KM-20L2 8.2 µM | DU-145 9.57 µM | NCI-H23 9.48 µM | MDA-MB-435 3.27 µM | DMS-114 8.71 µM | DMS-273 5.57 µM | A549 5.08 µM | T47D 11.5 µM | EKVX 10.5 µM | UACC-257 11.6 µM | NCI-H460 3.05 µM | SR 2.83 µM | SNB-78 13.4 µM | HOP-92 2.75 µM | SF-268 6.7 µM | SW-620 2.75 µM | RPMI-8226 12.9 µM | UO-31 4.1 µM | BT-549 13.5 µM | SK-MEL-28 9.68 µM | M19-MEL 13.3 µM | SNB-19 11.4 µM
